Converted amounts (≈) assume the structure as drawn.
Legend:
[1] = test system: Cryptococcus neoformans ATCC 90112; test: Anti-fungal broth microdilution (MIC), fungus H; assay type: cell-based; settings: yeast protocol, more than 80% inhibition, 48 h
How it was run: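 Broth microdilution per NCCLS M27-A (yeasts) and M38-A (filamentous fungi), compounds tested from 64 down to 0.125 μg/ml against 10^6 CFU/ml inocula. For filamentous fungi, MIC read after 48 to 72 h at 35° C as the concentration giving more than 50% visible growth inhibition.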

[2] = test system: PC3, RKOp21 and SKOV-3 cell lines; test: XTT cytotoxicity assay, mean over all three cell lines; assay type: cell-based, human; settings: mean value over all three cell lines
How it was run: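 Cells had 2 days of continuous compound exposure, then 3 h with XTT-PMS at 37 °C, 5% CO2 to form formazan from living cells. The value is % inhibition of cell growth, averaged over PC3, RKOp21 and SKOV-3.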

[3] = test system: Aspergillus fumigatus ATCC 204305; test: Anti-fungal broth microdilution (MIC), fungus A; assay type: cell-based; settings: filamentous protocol, more than 50% growth inhibition, 48 to 72 h
How it was run: (§1)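 Broth microdilution followed NCCLS M27-A for the Candida yeasts and M38-A for the Aspergillus filamentous strains, testing 64 down to 0.125 μg/ml in twofold steps against a 10^6 CFU/ml inoculum. For Aspergillus, MIC was read after 48 to 72 h at 35 °C as the concentration giving >50% visible growth inhibition.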

[4] = test system: Trypanosoma cruzi (Tulahuan-LACZ amstigotes in PEM); test: In vitro drug activity assay, protozoon A; assay type: cell-based; settings: amastigotes in murine peritoneal macrophages, 3 days
Experimental: In vitro activity of selected compounds of the invention against different protozoa was assessed as follows.
Murine (CD1) peritoneal macrophages were harvested 24 hours after starch induction and dispensed into 96-well plates at a concentration of 4×10^5 mL. After 24 hours, the cells were infected with Trypanosoma cruzi Tulahuan LAC-Z amastigotes (grown and cultured according to Buckner et al., Infection and Immunity 1999, 67(1): 403-409). 24 hours later, the infected cells were exposed to the test compounds (compounds of the invention as well as known prior art compounds) for 3 days and 50 μL of 500 μM CPRG-1% Nonidet P-40 was added to each well. The plates were read after 2 to 5 hours at 570 nm (Buckner et al., Antimicrobial Agents and Chemotherapy 1996, 40(11): 2592-2597). ED50 values were calculated with Msxlfit (IDBS).
The following protozoa were assessed: • A) Trypanosoma cruzi (Tulahuan-LACZ amstigotes in PEM, Lorente S O et al., Antimicrobial agents and chemotherapy 2004, 48(8): 2937-2950; Buckner et al., Infection and Immunity 1999, 67(1): 403-409; Buckner et al., Antimicrobial Agents and Chemotherapy 1996, 40(11): 2592-2597) • B) Trypanosoma brucei rhodesiense (strain STIB900, Lorente S O et al., Antimicrobial agents and chemotherapy 2004, 48(8): 2937-2950; Habtemariam S, BMC Pharmacology 2003, 3:6) • C) Plasmodium falciparum (strain K1, Korsinczky M et al., Antimicrobial agents and chemotherapy 2000, 44(8): 2100-2108; Thaitong S and Beale G H, Trans. R. Soc. Trop. Med. Hyg. 1981, 75: 271-273; Trager W and Jensen J B, Science 1976, 193: 673-675) • D) Plasmodium faiciparum (strain 3D7, Mu et al., PLoS Biology 2005, 3(10): e335)

[5] = test system: Candida parapsilosis ATCC 22019; test: Anti-fungal broth microdilution (MIC), fungus G; assay type: cell-based; settings: yeast protocol, more than 80% inhibition, 48 h
How it was run: as §1

[6] = test system: Streptococcus pneumoniae DSM 11967 (ATCC 49619); test: Anti-bacterial bouillon microdilution assay (MIC), bacterium B; assay type: cell-based; settings: Streptococcus pneumoniae DSM 11967, 24 h
Experimental: (§2) Selected compounds of the invention were tested in a bouillon microdilution assay method according to the DIN 58940 (www.din.de) guidelines for determination of susceptibility of bacterial strains with regard to cell growth inhibition. The assay method quantifies bacterial cell growth which corresponds to the turbidity of the liquid culture medium by photometric measurement carried out at 595 nm.
(§3) The method of MIC determination was performed according to DIN 58940-5. The volumina were adapted according to the microdilution method as described in DIN 58940-7 guideline.
(§4) Dependent on water solubility, compounds of the invention were dissolved either in water or ethanol in a concentration of 10 mg/ml. Subsequently, the stock was further diluted in water to a concentration of 512 μg/ml. The following serial dilutions (factor 2) were performed in water resulting in the following […] testing concentrations: 256 μg/ml, 128 μg/ml, 64 μg/ml, 32 μg/ml, 16 μg/ml, 8 μg/ml, 4 μg/ml, 2 μg/ml, 1 μg/ml, 0.5 μg/ml, 0.25 μg/ml and 0.125 μg/ml. Diluted compounds of the invention were transferred in 100 μl volume to the microtiter plate wells.
Pre-cultures of bacteria were grown in appropriate liquid media (refer to ATCC webpage, www.atcc.org) and afterwards were inoculated in corresponding liquid medium. 100 μl of the inoculums [adjusted to an amount of app. 1×10^6 microorganisms per ml (range of 10^5-10^8 microorganisms per ml)] were added to each of the testing compound concentrations and cultivated under the appropriate conditions.
(§5) Before and after incubation, bacterial growth was determined by photometric analysis against a positive control containing growing bacteria without compound and a sterile/negative control containing only the medium.

[7] = test system: Moraxella catarrhalis DMS 11994 (ATCC 43617); test: Anti-bacterial bouillon microdilution assay (MIC), bacterium D; assay type: cell-based
How it was run: (§6)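 Broth microdilution MIC per DIN 58940-5/-7. Twofold compound dilutions in water spanned 256 to 0.125 μg/ml in the test concentration series, with inocula of about 1×10^6 organisms/ml in strain-appropriate media. Growth was read as turbidity at 595 nm before and after incubation, against growth and sterile controls.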

[8] = test system: Enterococcus faecium DSM 20477 (ATCC 19434); test: Anti-bacterial bouillon microdilution assay (MIC), bacterium C; assay type: cell-based; settings: Enterococcus faecium DSM 20477, 24 h
Experimental: as §2, §3
as §4, with “wells. […]” for “wells.”
as §5

[9] = test system: Bacteroides fragilis DSM 2151 (ATCC 25285); test: Anti-bacterial bouillon microdilution assay (MIC), bacterium E; assay type: cell-based; settings: anaerob, 24 h
How it was run: as §6

Compound: CCCCCCCCCCCCCCCCOP(=O)([O-])OCC[N+]1(C)CCCCC1 [Compound 2, Phosphoric acid hexadecyl ester 2-(1-methyl-piperidin-1-yl)-ethyl ester]
- MIC, fungus H [1]: 1.5 µg/mL (≈ 3.35 µM)
- Mean % INH [2]: 36.1%
- MIC, fungus A [3]: 2 µg/mL (≈ 4.47 µM)
- ED50 (μg/mL), protozoon A [4]: 0.50 µg/mL (≈ 1.12 µM)
- MIC, fungus G [5]: 2 µg/mL (≈ 4.47 µM)
- MIC, bacterium B [6]: 8 µg/mL (≈ 17.9 µM)
- MIC, bacterium D ([7]; 24 h): 4 µg/mL (≈ 8.94 µM)

Compound: CCCCCCCCCCCCCCCCOP(=O)([O-])OCC[N+](C)(C)C [miltefosine, hexadecylphosphocholine, reference compound]
- MIC [8]: 32 µg/mL (≈ 78.5 µM)
- Mean % INH [2]: 68.7%
- ED50 (μg/mL), protozoon A [4]: 0.63 µg/mL (≈ 1.55 µM)
- MIC [6]: 128 µg/mL (≈ 314 µM)
- MIC ([7]; ATCC43617, 24 h): 16 µg/mL (≈ 39.3 µM)
- MIC [9]: > 256 µg/mL
